Residues, ends and D or L forms follow the SMILES beside them. *: point of attachment. Cbz = O=C(OCc1ccccc1)*; CH2F = FC*
What was measured:
[1] = tested on: Caspase8 activated with FADD + Fas; assay: Yeast cleavable-reporter β-galactosidase assay, Fas/FADD/Caspase-8 three-component system (384 well); type: cell-based, human; settings: for selectivity for Fas/FADD/Caspase-8 over Asc/Caspase-1 in yeast reporter assays: 384 well, various concentrations, 2–4 days at 30°C, OD620, counter-strains lacZ, Asc/Caspase-1, empty vector
Description: (§1) Figure 5 Validation of yeast-based assay using pharmacological inhibitor of Caspases. (A) Caspase-1, single component assay. EGY48 yeast cells expressing S1 substrate (TEF-Fas-d-S1-TA) and high levels of Caspase-1 (TEF-HA-Caspase1-FLAG) were incubated for 3 days in selection media (SD/X-gal) with the indicated concentrations of z-VAD-fmk in DMSO (•) or DMSO only (○), using 384-well plates. (B) Asc/Caspase-1 two-component system. EGY48 yeast cells expressing S1 substrate (TEF-Fas-d-S1-TA) a low level of pro-Caspase-1 (ΔTEF1-Caspase1-FLAG) and high levels of Asc (TEF-HA-Asc) were incubated for 3 days in the selection media (SD/X-gal) in 384 well plates with the indicated concentrations of calpeptin (▴) or z-VAD-fmk (•) or an equivalent volume of DMSO (○). (C) Fas/FADD/Caspase8 three-component system. EGY48 yeast cells expressing S8 substrate (TEF-S8-TA), low levels of pro-Caspase-8 CYC1-Caspase-8-HA, with a small amount of FADD (from ΔADH1 promoter) and a large amount of Fas (from ADH promoter), were incubated in selection media (SD/X-gal) with the indicated concentrations of calpeptin (▴) or z-VAD-fmk (•), or equivalent volume of DMSO (○), in 384-well plates for 3–4 days. For (A–C), relative absorbance at 620 nm was measured (mean ± std dev; n = 3−5 independent experiments). (* indicates p<0.001).
Figure 6 HTS Implementation of yeast-based, 3-component Caspase assays. (A) Validation of HTS assay for NLRP1-Asc-Caspase-1 system. Yeast cells (18 µl, typically at ≈2×10^5 cells/well) containing NLRP1ΔLRR/Asc/Caspase-1 were plated into wells of 384 well plates in media containing 1% galactose, 0.2% raffinose. Wells also contained 18 µL selection media with (blue squares) or without (purple diamonds) X-gal substrate (400 µg/mL final Concentration) plus 10% DMSO (4 µl) (to simulate compound addition). The plates were incubated for 72 hrs at 30°C and the OD620 was recorded. Values (mean±std dev) were calculated for the assay maximum and minimum. The Z' factor was calculated as described. (B) Example of library screening plate for NLRP1-Asc-Caspase-1. Yeast cells (typically at ≈2×10^5 cells/well) containing NLRP1/Asc/Caspase-1 were plated in 384 well plates in Selection Media, without (purple triangles) or with (all other wells) 400 µg/ml X-gal (final concentration). Compounds in DMSO (∼10 µM final) had been pre-added to wells (diamonds). The plates were incubated for 72 hrs at 30°C and the OD620 was recorded, “Hits” were defined by >50% reduction (as shown in green diamonds). […] Yeast cells containing Fas/FADD/Caspase-8 were cultured in 384 well plates as above with (blue squares) or without (purple diamonds) X-gal substrate, the plates were incubated for 72 hrs at 30°C and analyzed as above. […] Plates were incubated for 48 hrs at 30°C and OD620 values recorded. […]

Caspases = assay: Yeast-based Caspase-dependent lacZ reporter gene assays, 384 well format (summary over assays); type: cell-based, human
Description: We further validated the 384 well assay format, using zVAD-fmk, a peptidyl inhibitor with broad-spectrum activity against animal Caspases. For some experiments, a Calpain inhibitor was employed in side-by-side experiments as a control. The broad-spectrum Caspase inhibitor zVAD-fmk inhibited β-galactosidase activity in a dose-dependent fashion, with the concentration required for achieving 50% inhibition ranging from ∼1–10 µM in these assays, which were performed in 384 well format (Figure 5) (Table S1). […] These experiments verify that the 384 well version of the yeast-based Caspase-dependent reporter gene assay faithfully indicates the activity of an inhibitory compound, thus fulfilling one of the prerequisites for developing HTS assays.
Figure 5 Validation of yeast-based assay using pharmacological inhibitor of Caspases. (A) Caspase-1, single component assay. EGY48 yeast cells expressing S1 substrate (TEF-Fas-d-S1-TA) and high levels of Caspase-1 (TEF-HA-Caspase1-FLAG) were incubated for 3 days in selection media (SD/X-gal) with the indicated concentrations of z-VAD-fmk in DMSO (•) or DMSO only (○), using 384-well plates. […] For (A–C), relative absorbance at 620 nm was measured (mean ± std dev; n = 3−5 independent experiments). […]
(§2) For caspase assays, the assays were performed in a total volume of 40 µl in triplicate. […] Absorbance at 620 nm was measured 2–3 days after culture at 30°C.

Caspase1 = biological target: T1, Caspase1 (Homo sapiens, UniProt P29466); assay: Yeast cleavable-reporter β-galactosidase assay, Caspase-1 single component (384 well); type: cell-based; settings: yeast expressing Caspase1 alone at high levels; 384 well β-galactosidase activity assay; read-out: IC50 for z-VAD inhibition of Caspases
T1 construct: We expressed full-length Caspases-1, 2, 3, 4, 5, 6, 7, and 9 from high copy-number plasmids; HA (N); FLAG (C); expressed in transfected cells; host or cells: Saccharomyces cerevisiae EGY48
T1 sequence (P29466 120-297 limits assumed): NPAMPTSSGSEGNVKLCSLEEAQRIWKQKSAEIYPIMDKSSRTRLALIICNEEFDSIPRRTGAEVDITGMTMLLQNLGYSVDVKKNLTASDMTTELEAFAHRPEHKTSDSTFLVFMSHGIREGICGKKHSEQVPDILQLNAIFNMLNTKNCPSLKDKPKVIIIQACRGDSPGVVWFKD
T1 sequence (P29466 317-404 limits assumed): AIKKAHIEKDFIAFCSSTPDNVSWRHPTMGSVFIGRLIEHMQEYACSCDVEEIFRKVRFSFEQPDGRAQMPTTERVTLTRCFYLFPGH
Description: as §1, with “EGY48 yeast cells expressing S8 substrate (TEF-S8-TA), low levels of pro-Caspase-8 CYC1-Caspase-8-HA, with a small amount of FADD (from ΔADH1 promoter) and a large amount of Fas (from ADH promoter), were incubated in selection media (SD/X-gal) with the indicated concentrations of calpeptin (▴) or z-VAD-fmk (•), or equivalent volume of DMSO (○), in 384-well plates for 3–4 days.” left out, “(* indicates p<0.001).” left out
as §2
(§3) Supplementary file pone.0007655.s002.pdf: Table S1 Determination of IC50 values for zVAD-fmk inhibition of Caspases in yeast. […] The compound was titrated into assays at various concentrations and percentage inhibition was determined. IC50 values were determined, using PRIZM software for analysis. […]

[2] = biological target: Caspase1 activated with Asc; assay: Yeast cleavable-reporter β-galactosidase assay, Asc/Caspase-1 two-component system (384 well); type: cell-based, human; settings: 384 well β-galactosidase activity assay, read-out: IC50 for z-VAD inhibition of Caspases
Description: as §1, with “EGY48 yeast cells expressing S8 substrate (TEF-S8-TA), low levels of pro-Caspase-8 CYC1-Caspase-8-HA, with a small amount of FADD (from ΔADH1 promoter) and a large amount of Fas (from ADH promoter), were incubated in selection media (SD/X-gal) with the indicated concentrations of calpeptin (▴) or z-VAD-fmk (•), or equivalent volume of DMSO (○), in 384-well plates for 3–4 days.” left out, “(* indicates p<0.001).” left out
For caspase assays, the assays were performed in a total volume of 40 µl in triplicate. […] Absorbance at 620 nm was measured 2–3 days after culture at 30°C. […]
as §3

Caspase6 = biological target: T2, Caspase6 (Homo sapiens, UniProt P55212); assay: Yeast cleavable-reporter β-galactosidase assay, Caspase-6 (384 well); type: cell-based; settings: yeast expressing Caspase6; 384 well β-galactosidase activity assay; read-out: IC50 for z-VAD inhibition of Caspases
T2 construct: We expressed full-length Caspases-1, 2, 3, 4, 5, 6, 7, and 9 from high copy-number plasmids; HA (N); expressed in transfected cells; host or cells: Saccharomyces cerevisiae (EGY48)
T2 sequence (P55212 24-179 limits assumed): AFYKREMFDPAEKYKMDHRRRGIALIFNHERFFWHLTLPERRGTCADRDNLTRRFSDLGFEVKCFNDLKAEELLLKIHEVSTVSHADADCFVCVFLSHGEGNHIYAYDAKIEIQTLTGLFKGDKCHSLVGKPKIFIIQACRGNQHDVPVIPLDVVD
T2 sequence (P55212 194-293 limits assumed): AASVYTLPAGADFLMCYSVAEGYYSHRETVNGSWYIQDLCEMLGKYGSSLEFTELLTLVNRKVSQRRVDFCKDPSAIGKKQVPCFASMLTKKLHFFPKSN
Description: (§4) For caspase assays, the assays were performed in a total volume of 40 µl in triplicate. First, 20 µl of liquid selection media containing X-gal and a series of concentrations of reagents such as z-VAD was dispensed into each well of 384-well plates. Next, confluent yeast cells expressing various Caspases and cleavable substrates were collected, washed with water, and suspended in selection media of the same volume as the culture media. The yeast suspension was diluted to 1∶5-10 (v:v) with the selection media, and 20 µl aliquots were added to the 384-well plates. For ATG4B assays, yeast cells expressing ATG4B and LC3 fused-transcription factor were cultured overnight in standard growth medium, then the yeast cells were diluted in selection medium (SD medium containing 1% galactose, 0.2% raffinose, BU salts, and 100 µg/ml X-gal) at 10^4/ml and dispensed 100 µl into each well of 384-well plates. Absorbance at 620 nm was measured 2–3 days after culture at 30°C.
as §3

[3] = biological target: Caspase9 activated with Apaf*; assay: Yeast cleavable-reporter β-galactosidase assay, Apaf*/Caspase-9 (384 well); type: cell-based, human; settings: 384 well β-galactosidase activity assay, read-out: IC50 for z-VAD inhibition of Caspases
Description: as §4, §3

[4] = biological target: Caspase10 activated with FADD; assay: Yeast cleavable-reporter β-galactosidase assay, FADD/Caspase-10 (384 well); type: cell-based, human; settings: 384 well β-galactosidase activity assay, read-out: IC50 for z-VAD inhibition of Caspases
Description: as §4, §3

[5] = tested on: NLRP1/ASC/Caspase-1 proteolytic network; assay: Yeast cleavable-reporter β-galactosidase assay, NLRP1/ASC/Caspase-1 three-component system (384 well); type: cell-based, human; settings: 100 µM zVAD final, 2×10^5 cells/well, 48 hours, 400 µg/ml X-gal; Assay Max (DMSO) 0.78
Description: For the Fas/FADD/Caspase-8 and the NLRP1/Asc/Caspase-1 assays, EGY48 yeast containing the desired plasmids were streaked onto SD plates (6.8 g Yeast Nitrogen Base w/o amino acids, 20 mg arginine, 50 mg threonine, 30 mg isoleucine, 60 mg phenylalanine, 20 mg valine) containing agar (1.7%), supplemented with 2% α-D-glucose and 50 µg/mL leucine. The plates were incubated at 30°C for 48 hrs and a colony was picked and transferred to a 14 ml polypropylene tube containing 2 ml of SD media broth supplemented with α-D-glucose and leucine as above and grown at 30°C for 16–24 hrs with shaking. Then, 1 ml of the overnight culture was transferred into 20 mls of growth media in a 500 ml flask and shaken at 30°C for 16–24 hrs. […] After 48 hours, the plates were brought to room temperature, the breathable film removed and replaced with the transparent polyester tape seal, and the plates were mixed, pelleted briefly and read using a Beckman DTX 880, recording absorbance at 620 nm.
Supplementary file pone.0007655.s020.pdf: Figure S18 Determination of Z' scores for NLRP1(NALP1) and Fas(CD95) 3-component yeast-based HTS assays using caspase inhibitor zVAD-fmk. […] The Z' scores were determined by comparison of the DMSO-treated samples with the zVAD-treated samples. […]

c1ccc2c(c1)[I+]c1ccccc1-2 [CID-3101]
selectivity for Fas/FADD/Caspase-8 over Asc/Caspase-1 in yeast reporter assays [1]: selective inhibition of Fas-FADD-Caspase-8

C[n+]1cc2c3c(ccc2c2ccc4cc5c(cc4c21)OCO5)OCO3 [CID-5154]
selectivity for Fas/FADD/Caspase-8 over Asc/Caspase-1 in yeast reporter assays [1]: selective inhibition of Fas-FADD-Caspase-8

CCCC[C@@H](C=O)NC(=O)[C@H](CC(C)C)NC(=O)OCc1ccccc1 [Calpain inhibitor, calpeptin]
suppression of activation of the lacZ reporter gene (Caspases; control compound side-by-side with zVAD-fmk): did not suppress activation of the lacZ reporter gene

COC(=O)C[C@H](NC(=O)[C@H](C)NC(=O)[C@@H](NC(=O)OCc1ccccc1)C(C)C)C(=O)CF [zVAD-fmk] (Cbz-Val-Ala-Asp(OMe)-CH2F)
IC50 (Caspase1): 3.07 µM
IC50 [2]: 1 µM
IC50 (Caspase6): 6.78 µM
Assay Min (zVAD), absorbance OD620 ([1]; 100 µM zVAD final, 2×10^5 cells/well, 48 hours, 400 µg/ml X-gal, Assay Max (DMSO) 0.56): 0.20
IC50 ([1]; yeast, Caspase8 activated with FADD + Fas, 384 well β-galactosidase activity assay, read-out: IC50 for z-VAD inhibition of Caspases): 5.42 µM
IC50 [3]: 10.7 µM
IC50 [4]: 9.52 µM
IC50 (Caspases; range over the yeast Caspase assays, dose-dependent, read-out: concentration required for achieving 50% inhibition of β-galactosidase activity): 1 to 10 µM
Assay Min (zVAD), absorbance OD620 [5]: 0.19
